Measured values: paper PMC9266216, “Chemical Characterization, α-Glucosidase, α-Amylase and Lipase Inhibitory Properties of the Australian Honey Bee Propolis” (Foods, 2022)

How the values were obtained:
human salivary α-amylase = biological target: T1, human salivary α-amylase (Homo sapiens, UniProt P0DUB6); assay: α-amylase inhibition assay (CNP-G3, absorbance 405 nm); assay type: biochemical; conditions: for IC50: 120 min incubation, pH 6.0, 37 °C
T1 construct: purchased Sigma Aldrich
T1 sequence (P0DUB6 16-511): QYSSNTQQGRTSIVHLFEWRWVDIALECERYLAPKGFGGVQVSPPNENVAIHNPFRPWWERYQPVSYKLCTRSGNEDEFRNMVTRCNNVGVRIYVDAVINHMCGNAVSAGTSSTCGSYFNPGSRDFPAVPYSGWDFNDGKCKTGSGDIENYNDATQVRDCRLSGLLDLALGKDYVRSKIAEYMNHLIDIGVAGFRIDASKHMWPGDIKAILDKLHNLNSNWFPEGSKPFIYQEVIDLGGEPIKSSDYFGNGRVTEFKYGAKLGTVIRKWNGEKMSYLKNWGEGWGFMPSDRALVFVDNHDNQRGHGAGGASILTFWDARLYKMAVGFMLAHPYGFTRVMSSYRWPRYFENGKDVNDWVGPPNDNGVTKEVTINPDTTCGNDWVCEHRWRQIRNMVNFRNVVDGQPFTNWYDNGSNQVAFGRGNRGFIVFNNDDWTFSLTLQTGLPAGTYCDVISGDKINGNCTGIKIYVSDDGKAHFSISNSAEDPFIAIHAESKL
Procedure: The α-amylase inhibition assay was performed in 96-well microtiter plates. In each well was added 10 μL of propolis sample dissolved in DMSO, and 90 μL of 0.1 M phosphate buffer adjusted to pH 6.0 using 2.0 M H3PO4. To the solution, 80 μL of human salivary α-amylase solution (2.0 U/mL) was added and incubated for approximately 10 min at 37 °C. The enzyme reaction was initiated by adding 20 μL of the substrate solution CNP-G3 (10 mM in phosphate buffer). […] The percentage inhibition was calculated using the same formula as described for the α-glucosidase inhibition assay.

α-glucosidase = α-glucosidase (Saccharomyces cerevisiae, UniProt P53341); assay: biochemical; conditions: read-out: α-Glucosidase inhibition
Sequence of α-glucosidase (P53341 whole entry): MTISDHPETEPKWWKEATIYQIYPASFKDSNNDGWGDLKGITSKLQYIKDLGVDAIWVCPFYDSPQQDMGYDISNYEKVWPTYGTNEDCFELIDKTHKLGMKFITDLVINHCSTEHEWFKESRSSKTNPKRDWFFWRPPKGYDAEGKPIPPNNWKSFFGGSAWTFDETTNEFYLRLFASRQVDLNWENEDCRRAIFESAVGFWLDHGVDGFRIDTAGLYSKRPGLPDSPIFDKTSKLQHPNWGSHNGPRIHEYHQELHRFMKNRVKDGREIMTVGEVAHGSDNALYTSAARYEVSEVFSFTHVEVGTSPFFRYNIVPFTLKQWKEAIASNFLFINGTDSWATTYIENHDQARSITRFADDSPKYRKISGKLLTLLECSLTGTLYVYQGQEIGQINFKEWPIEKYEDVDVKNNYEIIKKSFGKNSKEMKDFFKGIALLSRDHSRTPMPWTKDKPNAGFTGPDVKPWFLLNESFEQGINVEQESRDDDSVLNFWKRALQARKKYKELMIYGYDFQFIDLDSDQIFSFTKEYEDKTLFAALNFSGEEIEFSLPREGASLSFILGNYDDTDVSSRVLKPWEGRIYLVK
Procedure: The α-glucosidase inhibition assay was performed at room temperature in 96-well microtiter plates (Sigma Aldrich, Sydney, Australia). The assays were adapted from Zhao et al., with some modifications. Briefly, in each well was added 10 μL of propolis sample at 2 mg/mL in DMSO and 90 μL of 0.1 M phosphate buffer, adjusted to pH 7.5 using 0.6 M KOH. To the solution, 80 μL of α-glucosidase solution (2.0 U/mL) was added and incubated for 10 min at room temperature. The enzyme reaction was initiated by adding 20 μL of p-NPG solution (10 mM in phosphate buffer). The colorimetric absorbance of the cleavage product (the strongly chromogenic p-nitrophenolate ion) after 30 min of incubation was measured at 405 nm using the EnSpire microplate reader (Perkin Elmer, Boston, MA, USA). […] The results were analyzed and calculated in Microsoft Excel, and expressed using the mean for each of the triplicate sets. Inhibition of the enzyme was calculated as follows: Inhibition (%)=(1−Absorbance (sample)/Absorbance (blank) )×100%)

porcine pancreas lipase = biological target: T2, porcine pancreas lipase (Sus scrofa, UniProt P00591); assay: lipase inhibition assay (p-NPB, absorbance 405 nm); assay type: biochemical; conditions: for IC50: 60 min incubation, pH 7.4, 37 °C
T2 construct: purchased Sigma Aldrich
T2 sequence (P00591 1-450): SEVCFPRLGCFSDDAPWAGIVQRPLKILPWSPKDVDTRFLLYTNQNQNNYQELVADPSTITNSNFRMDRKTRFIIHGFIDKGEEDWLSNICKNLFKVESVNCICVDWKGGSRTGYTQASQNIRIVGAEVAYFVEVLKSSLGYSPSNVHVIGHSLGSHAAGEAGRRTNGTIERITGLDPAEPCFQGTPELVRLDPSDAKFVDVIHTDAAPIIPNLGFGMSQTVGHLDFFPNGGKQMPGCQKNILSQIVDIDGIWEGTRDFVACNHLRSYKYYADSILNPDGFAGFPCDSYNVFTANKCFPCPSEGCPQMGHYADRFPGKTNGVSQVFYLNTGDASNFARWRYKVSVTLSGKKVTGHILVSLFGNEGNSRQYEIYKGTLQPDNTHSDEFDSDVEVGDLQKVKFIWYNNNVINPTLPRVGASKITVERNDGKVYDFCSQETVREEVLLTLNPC
Procedure: The solvents used for extraction (ethanol—EtOH), HPLC (acetonitrile—MeCN), and LC–MS (MeCN and water—H2O) analyses were purchased from Merck. The ultra-pure water used for the HPLC analysis was from an in-house Milli-Q system.
The lipase inhibition assay was performed in 96-well microtiter plates. In each well was added 10 μL of propolis sample dissolved in DMSO and 155 μL of 0.1 M tris-HCl buffer adjusted to pH 7.4 using 1.0 M KOH. To the solution, 25 μL of lipase solution (2000 U/mL) was added and incubated for approximately 15 min at 37 °C. The enzyme reaction was initiated by adding 10 μL of the substrate solution p-NPB (100 mM in methanol). The colorimetric absorbance of the cleavage product after 60 min of incubation was measured at 405 nm, using the EnSpire microplate reader (Perkin Elmer). […] The percentage inhibition was calculated using the same formula as described for the α-glucosidase inhibition assay.

SMILES | IC50 (human salivary α-amylase) [µM] | IC50 (porcine pancreas lipase) [µM] | inhibition at 250 µM (human salivary α-amylase) [%] | inhibition at 250 µM (α-glucosidase) [%] | inhibition at 83 µM (porcine pancreas lipase) [%]
O=C1C[C@@H](c2ccc(O)c(O)c2)Oc2cc(O)cc(O)c21 [Compound 7, eriodictyol, reference compound] | – | – | 41 | 13 | 12
O=C1C[C@@H](c2ccc(O)cc2)Oc2cc(O)cc(O)c21 [Compound 8, naringenin, reference compound] | 121 | – | 73 | 40 | 24
CC(C)=CCC/C(C)=C/Cc1c([C@@H]2CC(=O)c3c(cc(O)c(CC=C(C)C)c3O)O2)ccc(O)c1O [Compound 5, propolin G (Nymphaeol C)] | 246 | 43.4 | – | – | –
O=c1c(O)c(-c2ccc(O)c(O)c2)oc2cc(O)cc(O)c12 [Compound 9, quercetin, reference compound] | 17.4 | – | – | – | 37
CC(C)=CCC/C(C)=C/Cc1cc([C@@H]2CC(=O)c3c(O)cc(O)cc3O2)ccc1O [Compound 4, propolin H (3′-geranyl-naringenin)] | 52.5 | 33.1 | – | – | –

More lines, main results first:

IC50 (human salivary α-amylase) [µM] | IC50 (porcine pancreas lipase) [µM] | SMILES | inhibition at 250 µM (human salivary α-amylase) [%] | inhibition at 250 µM (α-glucosidase) [%] | inhibition at 83 µM (porcine pancreas lipase) [%]
142 | 32.3 | CC(C)=CCC/C(C)=C/Cc1c(-c2oc3cc(O)cc(O)c3c(=O)c2O)ccc(O)c1O [Compound 6, solophenol D] | – | – | –
204 | 30.3 | CC(C)=CCC/C(C)=C/Cc1c(O)cc2c(c1O)C(=O)C[C@@H](c1ccc(O)c(O)c1)O2 [Compound 3, propolin C (Nymphaeol A)] | – | – | –
205 | 51.8 | CC(C)=CCC/C(C)=C/Cc1c([C@@H]2CC(=O)c3c(O)cc(O)cc3O2)ccc(O)c1O [Compound 1, propolin D (Nymphaeol B)] | – | – | –
135 | 53 | CC(C)=CCC/C(C)=C/Cc1cc([C@@H]2CC(=O)c3c(O)cc(O)cc3O2)cc(O)c1O [Compound 2, propolin F (Isonymphaeol B)] | – | – | –
